Test results as given in US7074888B1, “Mimotopes and anti-mimotopes of human platelet glycoprotein Ib/IX” (The Research Foundation of State University of New York, priority 1995, dated 2006).
Ends that are not written are not given here.

How the values were obtained:
[1] = tested on: platelets in citrated PRP; test: Functional screening of candidate anti-mimotope bacteriophage clones, ristocetin-induced aggregation in citrated PRP; format: cell-based, human; settings: 150 μL phage + 250 μL citrated PRP, 1 hr 22° C., 0.8 mg/mL ristocetin (FIG. 8)
Procedure: FIG. 8 illustrates the functional screening of candidate anti-mimotope bacteriophage clones. Following incubation of 150 μL of the indicated bacteriophage clones with 250 μL of citrated PRP for 1 hr at 22° C., aggregation was initiated by the addition of 0.8 mg/mL ristocetin under stirring conditions at 37° C.;
(§1) Citrated human platelet-rich plasma (PRP) was prepared by standard methods (Miller et al. 1983). For study of C-34 neutralization by mimotope peptide, 350 μL of PRP containing 150,000 platelets/μL was incubated for 10 min at 22° C. with phosphate-buffered saline (PBS), 20 μg/mL C-34 mab, or 20 μg/mL C-34 that had previously been incubated for 30 min at 22° C. with varying concentrations of peptides. The PRP was then brought to 37° C. and stirred at 1200 rpm in a Chrono-Log lumi-aggregometer (Chrono-Log Corporation, Havertown, Pa.). Aggregation was initiated by the addition of 1 mg/mL ristocetin (Helena Laboratories, Beaumont, Tex.). For screening of bacteriophage clones displaying potential anti-mimotope peptides, 150 μl of PEG/NaCl precipitated phage was incubated with 250 μl of citrated PRP for one hour at 22° C., transferred to the aggregometer, following which ristocetin was added at a final concentration of 0.8 mg/ml.
The mimotope decapeptide itself was then used as a probe to search for “anti-mimotope” peptides. […]

[2] = tested on: formalin-fixed platelets; format: cell-based, human
Procedure: as §1
Further studies were undertaken with chemically synthesized peptide having SEQ ID NO:94: […]. This decapeptide was able to inhibit ristocetin-induced aggregation fully, with an IC50 occurring between 200–400 μg/mL (FIG. 9). […] In order to approximate more closely the native structure, peptides with an (Arg→Lys) substitution at position 7 were then studied. […] Whereas the […] Finally, both the wild-type GPIb alpha 228–237 peptide (SEQ ID NO:108) containing Gly at residue 233 and the PT-vWD variant with Val replacing Gly at this position (SEQ ID NO:107) were synthesized. […] Lyophilized peptides were reconstituted in PBS, pH 6.0 and 150 μL of varying dilutions incubated for 2–4 hr at 22° C. with 250 μL of formalin-fixed platelets ([…]), prior to aggregometry in which the addition of 1 U/mL purified vWF was followed by the addition of 0.9 mg/mL ristocetin.

[3] = tested on: mab SZ-2; test: ELISA: phage binding to biotinylated SZ-2 inhibits binding of SZ-2 to immobilized glycocalicin; settings: phage clone
Procedure: At this point, an ELISA assay can be used to evaluate individual clones, if the number of clones is high. In brief, phage having undergone two PEG precipitations, and subsequently adjusted for titer, can be incubated overnight with biotinylated mab, following which the mab-phage mixture can be added to wells of microtiter plates that have been previously coated with formalin-fixed platelets (or other suitable immobilized target recognized by the mab). Following a series of washing steps, avidin-peroxidase is added, the wells washed again, chromogenic substrate added, and the wells eventually read on an ELISA plate reader. The relative decrease in strength of signal in this assay provides guidance as to the most promising clones for further study. Consensus peptides identified in this manner can be chemically synthesized and characterized with respect to ability to bind original antibody. Peptides showing high binding affinity for the antibody can then be used as immunogens in mice and/or rabbits. […]

[4] = biological target: human platelet glycoprotein Ib/IX complex (human, UniProt P07359 17-652; P13224 26-206; P14770 17-177); test: cell-based or functional assay
Chain of human platelet glycoprotein Ib/IX complex (P07359 17-652, chain 1 of 3): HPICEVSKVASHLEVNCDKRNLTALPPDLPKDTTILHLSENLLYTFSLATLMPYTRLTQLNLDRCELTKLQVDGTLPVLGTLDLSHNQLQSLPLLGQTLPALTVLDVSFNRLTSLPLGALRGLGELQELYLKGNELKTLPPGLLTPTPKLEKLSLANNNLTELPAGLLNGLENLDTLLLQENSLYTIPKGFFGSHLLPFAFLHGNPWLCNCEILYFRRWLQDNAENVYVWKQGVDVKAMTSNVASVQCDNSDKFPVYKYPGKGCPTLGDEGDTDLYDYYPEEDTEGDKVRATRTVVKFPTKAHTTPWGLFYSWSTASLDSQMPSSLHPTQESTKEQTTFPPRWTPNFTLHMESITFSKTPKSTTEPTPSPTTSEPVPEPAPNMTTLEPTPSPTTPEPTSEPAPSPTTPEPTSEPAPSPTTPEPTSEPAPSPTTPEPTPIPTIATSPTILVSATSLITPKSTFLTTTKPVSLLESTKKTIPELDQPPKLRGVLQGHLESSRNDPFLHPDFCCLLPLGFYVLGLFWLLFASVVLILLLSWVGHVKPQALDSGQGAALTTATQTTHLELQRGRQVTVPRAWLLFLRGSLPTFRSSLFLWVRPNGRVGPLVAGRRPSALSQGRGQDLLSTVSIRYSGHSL
Chain of human platelet glycoprotein Ib/IX complex (P13224 26-206, chain 2 of 3): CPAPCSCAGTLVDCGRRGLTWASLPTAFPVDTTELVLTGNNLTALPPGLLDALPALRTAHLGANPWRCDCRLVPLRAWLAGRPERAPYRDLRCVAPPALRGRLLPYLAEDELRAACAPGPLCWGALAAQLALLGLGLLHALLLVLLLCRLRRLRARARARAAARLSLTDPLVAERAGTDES
Chain of human platelet glycoprotein Ib/IX complex (P14770 17-177, chain 3 of 3): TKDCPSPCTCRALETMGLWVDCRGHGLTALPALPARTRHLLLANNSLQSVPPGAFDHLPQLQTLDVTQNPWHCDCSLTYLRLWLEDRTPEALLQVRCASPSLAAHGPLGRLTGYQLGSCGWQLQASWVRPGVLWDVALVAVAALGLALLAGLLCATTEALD

## RHVAWWRQGV [SEQ ID NO:94, RHVAWWRQGV]
[1]
  inhibitory activity of bacteriophage clone in functional platelet assay: inhibitory activity above background level
[2]
  IC50 for inhibition of ristocetin-induced aggregation: 200 to 400 µg/mL
[2]; formalin-fixed platelets, 1 U/mL purified vWF, 0.9 mg/mL ristocetin
  inhibition of ristocetin-induced aggregation (extent, in words): fully

## WHWRSSWKSG [SEQ ID NO:83]
[3]
  neutralization of SZ-2 binding to immobilized glycocalicin: fully neutralizing

B1: chemically synthesized peptide having SEQ ID NO:94 (peptide)
peptide: RHVAWWRQGV
[4]
  IC50 of inhibition of ristocetin-induced aggregation of formalin-fixed platelets with vWF: 200 to 400 µg/mL
